Test results from the supplement of paper PMC6045584.
± gives the standard deviation of the averaged measurements.

Columns and labels:
[1] = compound: COc1cc2ncnc(Nc3ccc(F)c(Cl)c3)c2cc1NC(=O)/C=C/CN1CCCCC1; assay: surviving fraction relative to DMSO-only wells; higher = less growth inhibition; details: exposure time: 5 days
Procedure, shortened: (§1)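 Five days of continuous inhibitor exposure, at 0.5, 1, 5, 10, 50, 100, 500 and 1000 nM, followed a 24-hour period after log-phase tumour cell lines were seeded at 250–500 cells per well in 384-well plates. Surviving fraction was derived from CellTiter-Glo luminescence relative to the median of DMSO-only wells. Plates were read after 10 minutes at room temperature, and lines screened three times were kept only if replicate Pearson r >0.7 and median Z' >0.3.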

[2] = compound: Oc1nc(-c2ccc(C(F)(F)F)cc2)nc2c1CSCC2 [XAV-939]; assay: as above; details: exposure time: 5 days
Procedure, shortened: as §1

| Test System | surviving fraction ([1]; 0.5 nM) | surviving fraction ([1]; 1 nM) | surviving fraction ([1]; 5 nM) | surviving fraction ([1]; 10 nM) | surviving fraction ([1]; 50 nM) | surviving fraction ([1]; 100 nM) | surviving fraction ([1]; 500 nM) | surviving fraction ([1]; 1000 nM) | surviving fraction ([2]; 0.5 nM) | surviving fraction ([2]; 1 nM) | surviving fraction ([2]; 5 nM) | surviving fraction ([2]; 10 nM) | surviving fraction ([2]; 50 nM) | surviving fraction ([2]; 100 nM) | surviving fraction ([2]; 500 nM) | surviving fraction ([2]; 1000 nM) |
| --- | --- | --- | --- | --- | --- | --- | --- | --- | --- | --- | --- | --- | --- | --- | --- | --- |
| OSHN BONE | 1.07 ± 0.034 | 1.06 ± 0.044 | 1.08 ± 0.033 | 1.05 ± 0.035 | 1.1 ± 0.037 | 1.1 ± 0.027 | 1.06 ± 0.047 | 1.029 ± 0.0075 | 1.02 ± 0.013 | 1.07 ± 0.047 | 1.07 ± 0.037 | 1.05 ± 0.038 | 1.05 ± 0.015 | 1.09 ± 0.031 | 1.07 ± 0.038 | 1.11 ± 0.035 |
| SCC47 HEADNECK | 0.927 ± 0.031 | 0.976 ± 0.041 | 0.804 ± 0.1 | 0.745 ± 0.028 | 0.625 ± 0.026 | 0.59 ± 0.025 | 0.512 ± 0.031 | 0.375 ± 0.039 | 0.987 ± 0.14 | 1.14 ± 0.058 | 1.08 ± 0.036 | 1.16 ± 0.027 | 1.07 ± 0.047 | 1.11 ± 0.082 | 0.962 ± 0.05 | 0.966 ± 0.093 |
| CAL72 BONE | 1.08 ± 0.014 | 1.06 ± 0.042 | 1.08 ± 0.062 | 1.03 ± 0.024 | 1.06 ± 0.055 | 1.07 ± 0.034 | 0.943 ± 0.019 | 0.818 ± 0.017 | 1.07 ± 0.023 | 1.05 ± 0.013 | 0.999 ± 0.015 | 0.976 ± 0.023 | 0.944 ± 0.012 | 0.957 ± 0.029 | 0.916 ± 0.038 | 0.9 ± 0.025 |
| 93VU HEADNECK | 0.834 ± 0.065 | 0.8653 ± 0.005 | 0.651 ± 0.02 | 0.541 ± 0.12 | 0.465 ± 0.016 | 0.456 ± 0.034 | 0.353 ± 0.036 | 0.267 ± 0.025 | 0.98 ± 0.073 | 1.06 ± 0.071 | 1.11 ± 0.091 | 1.07 ± 0.077 | 1.15 ± 0.095 | 1.17 ± 0.066 | 1.05 ± 0.089 | 0.907 ± 0.035 |
| HCC78 LUNG | 0.902 ± 0.2 | 0.733 ± 0.13 | 0.87 ± 0.051 | 0.827 ± 0.21 | 0.749 ± 0.12 | 0.857 ± 0.086 | 0.595 ± 0.23 | 0.447 ± 0.02 | 0.9 ± 0.1 | 0.925 ± 0.12 | 1.09 ± 0.18 | 0.991 ± 0.13 | 0.983 ± 0.082 | 0.822 ± 0.16 | 0.286 ± 0.062 | 0.358 ± 0.08 |
| SUM159 BREAST | 1.08 ± 0.076 | 1.14 ± 0.16 | 1.1 ± 0.14 | 1.13 ± 0.2 | 1.06 ± 0.065 | 0.931 ± 0.14 | 1.01 ± 0.052 | 0.984 ± 0.017 | 1.17 ± 0.32 | 1.15 ± 0.19 | 1.14 ± 0.21 | 1.16 ± 0.22 | 1.12 ± 0.2 | 1.13 ± 0.18 | 1.09 ± 0.16 | 1.08 ± 0.11 |
| U2OS BONE | 1.03 ± 0.023 | 1.03 ± 0.025 | 1.02 ± 0.025 | 1.01 ± 0.038 | 1.04 ± 0.015 | 1.06 ± 0.027 | 0.906 ± 0.033 | 0.798 ± 0.034 | 1.02 ± 0.028 | 1.04 ± 0.012 | 1.07 ± 0.032 | 1.06 ± 0.038 | 1.06 ± 0.014 | 1.04 ± 0.018 | 0.921 ± 0.02 | 0.8627 ± 0.0081 |
| MDAMB231 BREAST | 1.03 ± 0.024 | 1.02 ± 0.024 | 1.05 ± 0.019 | 1.047 ± 0.01 | 1.02 ± 0.035 | 1 ± 0.024 | 0.692 ± 0.022 | 0.488 ± 0.039 | 0.957 ± 0.013 | 1.01 ± 0.028 | 0.982 ± 0.021 | 0.983 ± 0.018 | 0.917 ± 0.016 | 0.866 ± 0.025 | 0.656 ± 0.015 | 0.586 ± 0.026 |
| CME SYNOVIAL | 1.2 ± 0.09 | 1.4 ± 0.17 | 1.29 ± 0.12 | 1.39 ± 0.15 | 1.42 ± 0.18 | 1.37 ± 0.11 | 1.26 ± 0.098 | 1.27 ± 0.12 | 1.27 ± 0.24 | 1.2 ± 0.093 | 1.25 ± 0.16 | 1.3 ± 0.093 | 1.29 ± 0.14 | 1.3 ± 0.071 | 1.1 ± 0.03 | 0.952 ± 0.094 |
| T47D BREAST | 1.03 ± 0.044 | 1.11 ± 0.045 | 1.07 ± 0.041 | 1.04 ± 0.027 | 1.043 ± 0.0096 | 1.07 ± 0.034 | 1.05 ± 0.05 | 1.02 ± 0.046 | 1.04 ± 0.074 | 1.08 ± 0.045 | 1.07 ± 0.02 | 1.09 ± 0.014 | 1.09 ± 0.044 | 1.13 ± 0.053 | 1.04 ± 0.052 | 1.05 ± 0.042 |
| MDAMB436 BREAST | 0.922 ± 0.08 | 0.975 ± 0.077 | 0.895 ± 0.021 | 0.971 ± 0.17 | 0.996 ± 0.053 | 0.89 ± 0.11 | 0.771 ± 0.065 | 0.706 ± 0.085 | 0.957 ± 0.092 | 0.911 ± 0.088 | 0.923 ± 0.013 | 0.968 ± 0.079 | 0.959 ± 0.075 | 0.958 ± 0.081 | 0.856 ± 0.049 | 0.82 ± 0.011 |
| DU4475 BREAST | 0.798 ± 0.057 | 0.876 ± 0.044 | 0.901 ± 0.12 | 0.987 ± 0.21 | 0.908 ± 0.14 | 1.09 ± 0.14 | 1.14 ± 0.19 | 0.985 ± 0.054 | 1.02 ± 0.28 | 0.857 ± 0.17 | 0.884 ± 0.18 | 1.05 ± 0.12 | 1.07 ± 0.17 | 1.16 ± 0.18 | 1.15 ± 0.33 | 1.1 ± 0.25 |
| HOS BONE | 1.017 ± 0.0078 | 1 ± 0.018 | 1.02 ± 0.017 | 1.02 ± 0.015 | 1.05 ± 0.019 | 1.04 ± 0.023 | 0.951 ± 0.057 | 0.888 ± 0.032 | 1.01 ± 0.028 | 1.05 ± 0.016 | 1.02 ± 0.013 | 1.04 ± 0.0066 | 1.04 ± 0.029 | 1.04 ± 0.011 | 0.996 ± 0.02 | 1.05 ± 0.065 |
| OS25HAL BONE | 0.995 ± 0.013 | 0.972 ± 0.011 | 1.02 ± 0.032 | 0.981 ± 0.0017 | 1.05 ± 0.044 | 1.07 ± 0.015 | 1.012 ± 0.0087 | 0.964 ± 0.011 | 1.01 ± 0.026 | 1.04 ± 0.015 | 1.03 ± 0.014 | 0.965 ± 0.034 | 1.01 ± 0.013 | 1.03 ± 0.029 | 0.872 ± 0.06 | 0.893 ± 0.075 |
| CAL120 BREAST | 0.98 ± 0.016 | 0.952 ± 0.014 | 0.965 ± 0.021 | 0.973 ± 0.038 | 0.959 ± 0.022 | 0.961 ± 0.04 | 0.837 ± 0.025 | 0.543 ± 0.019 | 0.984 ± 0.027 | 1.02 ± 0.013 | 1.01 ± 0.019 | 0.969 ± 0.018 | 1.01 ± 0.021 | 1.011 ± 0.0096 | 0.951 ± 0.012 | 0.9582 ± 0.0029 |
